The record followed here is patent US4045563A, “Substituted 2-[pyridylalkylenesulfinyl]-benzimidazoles with gastric acid secretion inhibiting effects” (AB Hassle, priority 1975, dated 1977).

The first assay relates to gastric acid secretion. Put plainly: Inhibition of pentagastrin-induced gastric acid secretion in anesthetized dogs (modified perfusion technique, intraduodenal test compound). The format is in vivo. To be noted: 1 mg per kg body weight, dog, pentagastrin-stimulated. The protocol: To test the gastric acid secretion activity, a modified perfusion technique was performed using dogs as test animals. An anesthetized dog was fitted with one tube going through the esophagus to the stomach for instillation of fluid, and a second tube extending through the duodenum by way of the ligated pylorus for fluid drainage. Every 15 minutes, 5 ml/kg body weight of a saline solution was introduced into the test animal, and drained samples collected and titrated to pH 7.0 with 0.04N NaOH using a radiometer automatic titrator to calculate the acid output.
Gastric acid secretion was induced by pentagastrin by administering 1-2 μg/kg per hour, giving a submaximal secretory response. Test compounds in a 0.5% Methocel (methyl cellulose) suspension were introduced into the duodenum close to the ligation at least two hours following onset of stimulation, when the secretion had reached a steady level for three consecutive 15 minute periods.
The following gastric acid inhibiting effect data were obtained for a number of compounds tested according to the method described.
Regarding `[O-][S+](Cc1ccccn1)c1nc2ccccc2[nH]1` (stereo not shown) [Example 1, 2-[2-pyridylmethylsulfinyl]-benzimidazole], the “inhibited gastric acid secretion” value stood at 90%.

Staying with this assay, now noted: Canis lupus familiaris, dose 1 mg/kg, dog, pentagastrin-stimulated.
`CC(c1ccccn1)[S+]([O-])c1nc2ccccc2[nH]1` (stereo not shown) [Example 16] had an inhibition in vivo at 1 mg/kg of 37%. In turn, `Cc1ccc2[nH]c([S+]([O-])Cc3ccccn3)nc2c1` (stereo not shown) [Example 21] came in with an inhibition in vivo at 1 mg/kg of 50%.

Still in this assay, the particulars now being: Canis lupus familiaris, dose 2 mg/kg, dog, pentagastrin-stimulated.
In turn, `CCC(c1ccccn1)[S+]([O-])c1nc2ccccc2[nH]1` (stereo not shown) [Example 28] gave an inhibition in vivo at 2 mg/kg of 65%.

The assay is the same for the next values; noted with them: Canis lupus familiaris, dose 5 mg/kg, dog, pentagastrin-stimulated.
For `Cc1cc(C)c2nc([S+]([O-])Cc3ccccn3)[nH]c2c1` (stereo not shown) [Example 2], the inhibition in vivo at 5 mg/kg stood at 94%. On the same count and under the same terms, with `CCc1ccc2[nH]c([S+]([O-])Cc3ccccn3)nc2c1` (stereo not shown) [Example 3] the figure was 50%; with `CCOC(=O)c1ccc2[nH]c([S+]([O-])Cc3ccccn3)nc2c1` (stereo not shown) [Example 9], 8%.

`CC(c1ccccn1)[S+]([O-])c1nc2ccccc2[nH]1` (stereo not shown) [Example 16]: testing at 5 mg/kg gave an inhibition in vivo of 96%. With `Cc1ccc2[nH]c([S+]([O-])Cc3ccccn3)nc2c1` (stereo not shown) [Example 21], the inhibition in vivo at 5 mg/kg turned out to be 95%. The molecule `[O-][S+](Cc1ccccn1)c1nc2cc(Cl)ccc2[nH]1` (stereo not shown) [Example 22] gave an inhibition in vivo at 5 mg/kg of 35%.

In turn, `CCCc1ccc2[nH]c([S+]([O-])Cc3ccccn3)nc2c1` (stereo not shown) [Example 25] registered an inhibition in vivo at 5 mg/kg of 15%. On the same count and under the same terms, the result for `Cc1ccc(C[S+]([O-])c2nc3cc(C)ccc3[nH]2)nc1` (stereo not shown) [Example 26] reads > 75%. As to `CCC(c1ccccn1)[S+]([O-])c1nc2ccccc2[nH]1` (stereo not shown) [Example 28], the inhibition in vivo at 5 mg/kg was 80%. Regarding `CCc1ccc2[nH]c([S+]([O-])C(C)c3ccccn3)nc2c1` (stereo not shown) [Example 30], the inhibition in vivo at 5 mg/kg was determined as 60%.

As to `Cc1ccnc(C[S+]([O-])c2nc3cc(C)ccc3[nH]2)c1` (stereo not shown) [Example 42], the inhibition in vivo at 5 mg/kg is > 75%. Same read-out and setting: with `Cc1cccnc1C[S+]([O-])c1nc2ccccc2[nH]1` (stereo not shown) [Example 43] the figure was > 75%. For `CCc1ccc(C[S+]([O-])c2nc3cc(C)ccc3[nH]2)nc1` (stereo not shown) [Example 44], the inhibition in vivo at 5 mg/kg turned out to be 95%. Still for that read-out and setting: with `CCc1ccc(C[S+]([O-])c2nc3ccccc3[nH]2)nc1` (stereo not shown) [Example 45] the figure was 90%; with `[O-][S+](Cc1ccccn1)c1nc2c(Cl)cccc2[nH]1` (stereo not shown) [Example 53], 30%. The same measure, in the same setting: with `Cc1cc2nc([S+]([O-])C(C)c3ccccn3)[nH]c2cc1C` (stereo not shown) [Example 55] the figure was 30%.

The assay is the same for the next values; noted with them: Canis lupus familiaris, dose 10 mg/kg, dog, pentagastrin-stimulated.
For the molecule `Cc1cc(Cl)cc2[nH]c([S+]([O-])Cc3ccccn3)nc12` (stereo not shown) [Example 4], the inhibition in vivo at 10 mg/kg is 41%. Still for that read-out and setting: with `CC(C)c1ccc2[nH]c([S+]([O-])Cc3ccccn3)nc2c1` (stereo not shown) [Example 23] the figure was 80%.
